Test results taken from paper PMC5601486, “Identification of 4-phenylquinolin-2(1H)-one as a specific allosteric inhibitor of Akt” (Scientific Reports, 2017).

Legend:
Akt T308 phosphorylation = test: Western blot analysis of T308 phosphorylation; assay type: cell-based; details: Mus musculus, N2a, 0.5 h; Neuro 2A cells, G7 30 min then IGF 30 min
Method: The following criteria were applied for hit selection from the primary screen: 1, hits in robust curve classes (1/2/3) with efficacy greater than 30% were considered active; 2, these hits were filtered for donor interference; 3, hits were further filtered by reactive and promiscuous functional groups, as previously described4; 4, hits were clustered by structural similarity using Leadscope Hosted Client (Leadscope Inc., Columbus, […]
(§1) Neuro 2A cells were seeded in 12-well plates in DMEM containing 5% FBS for 24 hr.
(§2) After overnight serum starvation (in 0% FBS DMEM), cells were incubated for 30 min at 37 °C with G7 or LY294002 or Torin 1 (Sigma Aldrich) at various concentrations, or DMSO control. IGF-1 was added to each well at a final concentration of 100 ng/mL. After 30-min incubation cells were washed with cold PBS and lysed with 50 µL lysis buffer containing 1% Triton X-100 and protease/phosphatase inhibitors (Cell Signaling Technology) or RIPA buffer (Santa Cruz Biotech). […]
(§3) anti- GAPDH (14C10) antibody (#2118) (all antibodies were from Cell Signaling Technology unless indicated, 1:1000 dilution was used) at 4°C overnight, washed three times with TBS-T, then incubated with peroxidase-conjugated secondary antibody (Sigma-Aldrich) for 1 hr at room temperature. […] Band intensity was quantitated using Kodak 1D imaging analysis software. […]

cleaved caspase 3 = test: Western blot of cleaved caspase 3; assay type: cell-based, Mouse; details: Neuro 2A cells
Method: as §1
as §2, with “Biotech). Samples were electrophoresed in 4–12% Bis-Tris gels (Life Technologies) at 150 V using MOPS SDS running buffer. Proteins were transferred electrophoretically to a PVDF or nitrocellulose membrane. For detection of cleaved” for “Biotech).”
(§4) caspase 3 a Trans-Blot Turbo Transfer System (Bio-Rad, 25 V for 25 min) with PVDF membrane were used. […]
as §3

ERK1/2 = test: Western blot of ERK1/2 phosphorylation; assay type: cell-based, Mouse; details: Neuro 2A cells
Method: as §1
as §2, with “Biotech). Samples were electrophoresed in 4–12% Bis-Tris gels (Life Technologies) at 150 V using MOPS SDS running buffer. Proteins were transferred electrophoretically to a PVDF or nitrocellulose membrane. For detection of cleaved” for “Biotech).”
as §4, §3

CDC2L1 = test: KINOMEscan; details: 50000 nM
Method: KINOMEscan™ selectivity screen
(§5) Briefly, Kinase-tagged T7 phage strains were grown in parallel in an E. coli host derived from the BL21 strain. E. coli were grown to log-phase and infected with T7 phage from a frozen stock and incubated with shaking at 32°C until lysis (90-150 minutes). The kinases were produced in HEK-293 cells and subsequently tagged with DNA for qPCR detection. Streptavidin-coated magnetic beads were treated with biotinylated small molecule ligands to generate affinity resins for kinase
(§6) inhibitor or DMSO control was performed in polypropylene 384-well plates for 1 hr at room temperature. After wash with PBS buffer containing 0.05% Tween 20, the beads were incubated in elution buffer (PBS containing 0.05 % Tween 20 and 0.5 μM non-biotinylated affinity ligand) for 30 minutes at room temperature. The kinase concentration in the eluates was measured by qPCR.

PIK3CA(M1043I) = test: KINOMEscan; details: 50000 nM
Method: KINOMEscan™ selectivity screen
(§7) The assay was perfor med at DiscoveRx Corporation according the methods published previously5. Briefly, Kinase-tagged T7 phage strains were grown in parallel in an E. coli host derived from the BL21 strain. E. coli were grown to log-phase and infected with T7 phage from a frozen stock and incubated with shaking at 32°C until lysis (90-150 minutes). The kinases were produced in HEK-293 cells and subsequently tagged with DNA for qPCR detection. Streptavidin-coated magnetic beads were treated with biotinylated small molecule ligands to generate affinity resins for kinase
as §6

GCN2(Kin.Dom.2,S808G) = test: KINOMEscan; details: 50000 nM
Method: KINOMEscan™ selectivity screen
as §7, §6

PIK3CA(E545K) = test: KINOMEscan; details: 50000 nM
Method: KINOMEscan™ selectivity screen
as §7, §6

WNK1 = test: KINOMEscan; details: 50000 nM
Method: KINOMEscan™ selectivity screen
as §7, §6

PIK3CA(I800L) = test: KINOMEscan; details: 50000 nM
Method: KINOMEscan™ selectivity screen
as §7, §6

TSSK1B = test: KINOMEscan; details: 50000 nM
Method: KINOMEscan™ selectivity screen
Briefly, Kinase-tagged T7 phage strains were grown in parallel in an E. coli host derived from the BL21 strain. E. coli were grown to log-phase and infected with T7 phage from a frozen stock and incubated with shaking at 32°C until lysis (90-150 minutes). The kinases were produced in HEK-293 cells and subsequently tagged with DNA for qPCR detection.
After wash with PBS buffer containing 0.05% Tween 20, the beads were incubated in elution buffer (PBS containing 0.05 % Tween 20 and 0.5 μM non-biotinylated affinity ligand) for 30 minutes at room temperature. The kinase concentration in the eluates was measured by qPCR.

AURKB = test: KINOMEscan; details: 50000 nM
Method: KINOMEscan™ selectivity screen
as §7, §6

CDK11 = test: KINOMEscan; details: 50000 nM
Method: KINOMEscan™ selectivity screen
as §7, §6

RET(V804M) = test: KINOMEscan; details: 50000 nM
Method: KINOMEscan™ selectivity screen
as §7, §6

CDK7 = test: KINOMEscan; details: 50000 nM
Method: KINOMEscan™ selectivity screen
as §7, §6

FGFR3 = test: KINOMEscan; details: 50000 nM
Method: KINOMEscan™ selectivity screen
as §7, §6

NDR1 = test: KINOMEscan; details: 50000 nM
Method: KINOMEscan™ selectivity screen
as §5, §6

MLK1 = test: KINOMEscan; details: 50000 nM
Method: KINOMEscan™ selectivity screen
as §7, §6

FLT1 = test: KINOMEscan; details: 50000 nM
Method: KINOMEscan™ selectivity screen
as §7, §6

ROCK2 = test: KINOMEscan; details: 50000 nM
Method: KINOMEscan™ selectivity screen
as §7, §6

IGF1R = test: KINOMEscan; details: 50000 nM
Method: KINOMEscan™ selectivity screen
The assay was perfor med at DiscoveRx Corporation according the methods published previously5. […] The kinases were produced in HEK-293 cells and subsequently tagged with DNA for qPCR detection. Streptavidin-coated magnetic beads were treated with biotinylated small molecule ligands to generate affinity resins for kinase
as §6

CIT = test: KINOMEscan; details: 50000 nM
Method: KINOMEscan™ selectivity screen
The kinases were produced in HEK-293 cells and subsequently tagged with DNA for qPCR detection. Streptavidin-coated magnetic beads were treated with biotinylated small molecule ligands to generate affinity resins for kinase
as §6

ANKK1 = test: KINOMEscan; details: 50000 nM
Method: KINOMEscan™ selectivity screen
as §7, §6

CDK4-cyclinD3 = test: KINOMEscan; details: 50000 nM
Method: KINOMEscan™ selectivity screen
as §5, §6

PRKG1 = test: KINOMEscan; details: 50000 nM
Method: KINOMEscan™ selectivity screen
as §7, §6

YSK1 = test: KINOMEscan; details: 50000 nM
Method: KINOMEscan™ selectivity screen
as §7, §6

EPHA3 = test: KINOMEscan; details: 50000 nM
Method: KINOMEscan™ selectivity screen
as §7, §6

PKMYT1 = test: KINOMEscan; details: 50000 nM
Method: KINOMEscan™ selectivity screen
as §5, §6

SIK = test: KINOMEscan; details: 50000 nM
Method: KINOMEscan™ selectivity screen
as §7, §6

SRC = test: KINOMEscan; details: 50000 nM
Method: KINOMEscan™ selectivity screen
as §7, §6

SGK2 = test: KINOMEscan; details: 50000 nM
Method: KINOMEscan™ selectivity screen
as §5, §6

KIT(V559D,T670I) = test: KINOMEscan; details: 50000 nM
Method: KINOMEscan™ selectivity screen
as §7, §6

FLT3(N841I) = test: KINOMEscan; details: 50000 nM
Method: KINOMEscan™ selectivity screen
as §5, §6

PDGFRB = test: KINOMEscan; details: 50000 nM
Method: KINOMEscan™ selectivity screen
as §5, §6

FLT3 = test: KINOMEscan; details: 50000 nM
Method: KINOMEscan™ selectivity screen
as §7, §6

CSF1R = test: KINOMEscan; details: 50000 nM
Method: KINOMEscan™ selectivity screen
as §7, §6

Compound: Oc1cc(-c2ccccc2)c2ccccc2n1 [G7, 4-phenylquinolin-2(1H)-one]
- IC50 (Akt T308 phosphorylation): 4.9 µM
- levels of the cleaved caspase 3 (cleaved caspase 3): elevated levels
- phosphorylation of ERK1/2 (ERK1/2): neither inhibited
- Percent Control (CDC2L1): 100%
- Percent Control (PIK3CA(M1043I)): 100%
- Percent Control (GCN2(Kin.Dom.2,S808G)): 99%
- Percent Control (PIK3CA(E545K)): 98%
- Percent Control (WNK1): 97%
- Percent Control (PIK3CA(I800L)): 95%
- Percent Control (TSSK1B): 93%
- Percent Control (AURKB): 91%
- Percent Control (CDK11): 91%
- Percent Control (RET(V804M)): 85%
- Percent Control (CDK7): 84%
- Percent Control (FGFR3): 83%
- Percent Control (NDR1): 83%
- Percent Control (MLK1): 82%
- Percent Control (FLT1): 81%
- Percent Control (ROCK2): 81%
- Percent Control (IGF1R): 76%
- Percent Control (CIT): 74%
- Percent Control (ANKK1): 73%
- Percent Control (CDK4-cyclinD3): 71%
- Percent Control (PRKG1): 70%
- Percent Control (YSK1): 70%
- Percent Control (EPHA3): 66%
- Percent Control (PKMYT1): 65%
- Percent Control (SIK): 65%
- Percent Control (SRC): 65%
- Percent Control (SGK2): 62%
- Percent Control (KIT(V559D,T670I)): 44%
- Percent Control (FLT3(N841I)): 30%
- Percent Control (PDGFRB): 23%
- Percent Control (FLT3): 13%
- Percent Control (CSF1R): 7.4%
